Measurements published in ChEMBL document CHEMBL1125854, “Synthesis of substituted 5-amino-8-phenyl-3H,6H-1,4,5a,8a-tetraazaacenaphthalen-3-ones, a new class of agents for the improvement of cognition” (1991).
“And” between values parts separate entries of the source, which are not always exact repeats. Equal values may be shown once.

Assays:
Type in all cases: functional
[1] = tested on: Mus musculus; experiment: Tested for hypoxic survival test by 100 mg/kg intraperitoneal administration and percent survival of mice was reported.; settings: ip
[2] = tested on: Mus musculus; experiment: (§1) Attenuation of anoxic-induced amnesia in mice treated with 100 mg/kg compound administered intraperitoneally was determined; settings: route intraperitoneal
[3] = tested on: Mus musculus; experiment: as §1; settings: route intraperitoneal; remark: listed apart in the source
[4] = tested on: Mus musculus; experiment: Survival of mice after intraperitoneal administration of 50 mg/kg compound by using hypoxic survival test was determined; settings: ip
[5] = tested on: Mus musculus; experiment: Attenuation of anoxic-induced amnesia in mice treated with 100 mg/kg compound administered intraperitoneally was determined; 153-209; settings: route intraperitoneal
[6] = tested on: Mus musculus; experiment: Survival of mice after intraperitoneal administration of 100 mg/kg compound by using hypoxic survival test was determined; settings: ip
[7] = tested on: Mus musculus; experiment: Attenuation of anoxic-induced amnesia in mice treated with 10 mg/kg compound administered intraperitoneally was determined; settings: route intraperitoneal
[8] = tested on: Mus musculus; experiment: Attenuation of anoxic-induced amnesia in mice treated with 25 mg/kg compound administered intraperitoneally was determined; settings: route intraperitoneal
[9] = tested on: Mus musculus; experiment: Tested for hypoxic survival test by 0.125 mg/kg intraperitoneal administration and percent survival of mice was reported; Value ranges from 60-80; settings: ip
[10] = tested on: Mus musculus; experiment: Attenuation of anoxic-induced amnesia in mice treated with 0.1 mg/kg compound administered intraperitoneally was determined; settings: route intraperitoneal

CCNc1nc(=O)c2cnn3c2n1CC=C3c1ccccc1
survival at 100 mg/kg [1]: 73%

CC(C)Nc1nc(=O)c2cnn3c2n1CC=C3c1ccccc1
survival at 100 mg/kg [1]: 20%

CC(C)CNc1nc(=O)c2cnn3c2n1CC=C3c1cccc(C(F)(F)F)c1
Latency [2]: 51 s | Latency [3]: 218 s | survival at 50 mg/kg [4]: 50% | Improvement [5]: 209%

CCCCNc1nc(=O)c2cnn3c2n1CC=C3c1cccc(C(F)(F)F)c1
survival at 100 mg/kg [6]: 58%

CC(C)CNc1nc(=O)c2cnn3c2n1CC=C3c1ccccc1
survival at 100 mg/kg [1]: 30%

CC(C)Nc1nc(=O)c2cnn3c2n1CC=C3c1cccc(C(F)(F)F)c1
survival at 100 mg/kg [6]: 15%

CNc1nc(=O)c2cnn3c2n1CC=C3c1ccccc1
survival at 100 mg/kg [1]: 95%

CCNc1nc(=O)c2cnn3c2n1CC=C3c1cccc(C(F)(F)F)c1
survival at 100 mg/kg [6]: 65%

Nc1nc(=O)c2cnn3c2n1CC=C3c1cccc(C(F)(F)F)c1
Improvement [2]: 20% | Latency [2]: 180 s | survival at 100 mg/kg [1]: 68% | Latency [7]: 102 s

CCCCNc1nc(=O)c2cnn3c2n1CC=C3c1ccccc1
survival at 100 mg/kg [1]: 70% | Improvement [8]: 67% | Latency [8]: 127 s and 132 s

CNC(=O)Oc1ccc2c(c1)[C@]1(C)CCN(C)[C@@H]1N2C [PHYSOSTIGMINE]
survival at 0.125 mg/kg [9]: 60% | Improvement [10]: 36%
